For this assay, the target named is T1, DrOTOP1 G130W/A274W (Danio rerio, UniProt Q7ZWK8, A274W/G130W).
T1 construct: A previously generated codon-optimized full-length DrOTOP1[8]; (UniProt: Q7ZWK8) construct; expressed in transfected cells; host or cells: HEK-293 (CRL-1573, ATCC)
T1 sequence (Q7ZWK8 1-586 G130W/A274W): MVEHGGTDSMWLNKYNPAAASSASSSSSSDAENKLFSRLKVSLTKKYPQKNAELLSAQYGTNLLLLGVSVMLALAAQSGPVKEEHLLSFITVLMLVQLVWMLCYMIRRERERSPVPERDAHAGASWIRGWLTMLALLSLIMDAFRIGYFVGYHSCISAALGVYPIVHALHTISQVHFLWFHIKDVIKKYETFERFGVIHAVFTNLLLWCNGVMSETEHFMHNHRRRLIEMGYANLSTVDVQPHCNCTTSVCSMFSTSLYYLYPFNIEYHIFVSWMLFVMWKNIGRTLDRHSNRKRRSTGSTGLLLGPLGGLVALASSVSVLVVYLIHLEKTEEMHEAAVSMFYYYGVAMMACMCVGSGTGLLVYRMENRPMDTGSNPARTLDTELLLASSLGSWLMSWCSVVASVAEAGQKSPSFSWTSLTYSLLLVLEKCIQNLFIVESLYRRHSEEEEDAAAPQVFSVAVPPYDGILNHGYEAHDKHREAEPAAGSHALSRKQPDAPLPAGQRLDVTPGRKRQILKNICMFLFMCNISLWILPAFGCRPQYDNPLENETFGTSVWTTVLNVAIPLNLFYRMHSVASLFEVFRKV
The assay can be described thus: Whole-cell patch-clamp, inhibition of acid-evoked currents, DrOTOP1 G130W/A274W. The assay is classed as cell-based, zebrafish (Danio rerio). The procedure: Given our limited success in identifying mutations of the central site that disrupt antagonism by C2.2, we tested whether mutations of the central site in a background of G130W (the most impactful outer site mutation) might unmask contributions of this site. Thus, we generated and tested double mutants of G130W with E384A, A274W, and A388W. […] We also measured the dose-dependence of inhibition by C2.2 for both G130W/A388W and G130W/E384A (Fig. 5I, J). […] G130W was tested in parallel to confirm that 100 and 300 μM C2.2 produced dose-dependent inhibition.
HEK-293 cells (CRL-1573, ATCC) were cultured in DMEM (Thermofisher 11995073) containing 10% fetal bovine serum (Life Technology 16000044) and Penicillin-Streptomycin (100 I.U./mL) and (100 µg/mL), respectively. Cells were transfected with WT DrOTOP1 or mutant DrOTOP1 channels in 35 mm petri dishes, with ~ 500 ng DNA and 2 μL TransIT-LT1 transfection reagent (Mirus Bio Corporation, Cat # MIR2300) following the manufacturer’s protocol. […]
Whole-cell patch-clamp recording was performed as previously described[6],[22],[25]. Recordings were made with an Axopatch 200B amplifier, digitized with a Digidata 1322a 16-bit data acquisition system, acquired with pClamp 8.2 and analyzed with Clampfit 10 (Molecular Devices). […]
All data are presented as mean ± SEM unless otherwise noted, and each data point represents an independent replicant. Inhibition of compounds was quantified as ((I2peak-I1)/(I2peak))*100, where I1 is the current immediately before wash-off and I2peak is the maximum recovered current (Supplementary Fig. 2). Hill coefficients were determined by the following equation: Y = Bmax*X^h/(Kd^h + X^h). Absolute IC50 was determined by the following equation: Fifty = (Top + Baseline)/2 Y = Bottom + (Top-Bottom)/(1 + ((Top-Bottom)/(Fifty-Bottom) − 1)*(AbsoluteIC50/X)^HillSlope). pH50 curves (Fig. 6G inset) were determined using the following equation: Y = Bottom + (Top-Bottom)/(1 + (EC/X)^HillSlope) where EC = EC50 control. […]
In general terms: The patch-clamp technique gives a direct electrical read-out from membranes.

Values joined by “and” are separate entries in the source; they are usually repeats but may differ in a detail not shown here. Equal values may be shown once.

As to `C=C(C)COc1ccccc1NC(=O)c1nc[nH]c1C` [C2.2], the inhibition (in general, the relative decrease from the control value, in per cent) at 10 µM (10 µM, single cells or mean) worked out at 8.49%.

In the case of `O=C(/C(=N\O)c1ccccc1)c1ccccc1` [C11, benzil monoxime], under “100 µM, single cells”, the Inhibition of currents is 67.5079% and 70.0684% and 78.866% and 74.4022%; the inhibition at 100 µM was determined as 67.5%.

The values are drawn from paper PMC12549899 (Nature Communications, 2025).
